Experimental data as given in EPA's ToxValDB 9.5 (doi:10.2903/j.efsa.2007.121r).
≈ marks a conversion by molar mass, not a printed value.

Tests used:
Canidae = details: chronic; duration: 2 years; oral; diet; Dog Other; body weight
Tagia sp. = details: acute; duration: 14 days; mortality
Apis mellifera = details: acute; duration: 48 hours; oral; unspecified; mortality
Oncorhynchus mykiss = details: chronic/long-term; duration: 91 days; mortality
Lepomis macrochirus = details: acute; duration: 96 hours; mortality
Bibionidae = details: chronic/long-term; duration: 28 days
Daphnia magna = details: chronic/long-term; duration: 21 days; reproduction
Coturnix coturnix = details: acute; oral; mortality
Aphidius rhopalosiphi = test: LR50; higher = less toxic; details: not reported; mortality
[1] = reproduction developmental, organ weight

## CCOC(=O)[C@@H](C)Oc1ccc(Oc2nc3ccc(Cl)cc3o2)cc1 [Fenoxaprop-P-ethyl]
Canidae
  NOAEL: 1 mg/kg-day
Tagia sp.
  LC50: > 1000 mg/kg
Rattus norvegicus; acute, oral, mortality
  LD50: > 3150 mg/kg-day
Rattus norvegicus; developmental, development
  NOAEL: 10 mg/kg-day
Rattus norvegicus; [1]
  NOAEL: 1.4 mg/kg-day
Apis mellifera
  LD50: > 199 µg/piece
Oncorhynchus mykiss
  NOEC: 0.036 mg/L
Lepomis macrochirus
  LC50: 0.19 µg/mL (≈ 0.525 µM)
Bibionidae
  NOEC: 0.2 mg/L
Daphnia magna
  NOEC: 0.22 mg/L
Coturnix coturnix
  LD50: 2000 mg/kg-day
Aphidius rhopalosiphi
  LR50: 46.4 g/ha

## CCOC(=O)C(C)Oc1ccc(Oc2nc3ccc(Cl)cc3o2)cc1 (stereo not given) [Fenoxaprop-ethyl]
Canidae
  NOAEL: 1 mg/kg-day
Rattus norvegicus; developmental, development
  NOAEL: 10 mg/kg-day
Rattus norvegicus; [1]
  NOAEL: 1.4 mg/kg-day
